Laboratory results published in ChEMBL document CHEMBL1201862, “PubChem BioAssay data set” (2004).
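Cells were grown in 96-well plates and exposed to each compound for 48 hours at five concentrations; endpoints were interpolated linearly between bracketing concentrations, or set to the highest concentration if not reached. GI50 = concentration required for 50% inhibition of growth.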 Activity calls are given as the source filed them. Cut-off read from the data, not from the text of the source: active = GI50 up to about 1.1 µM and inactive = higher.

Key:
Assay in all cases: NCI tumour cell line growth inhibition, 48 h
[1] = system: A549
[2] = system: DU-145
[3] = system: SF-295
[4] = system: MDA-MB-231
[5] = system: NCI-H226
[6] = system: HOP-62
[7] = system: UO-31
[8] = system: SF-268
[9] = system: OVCAR-5
[10] = system: OVCAR-4
[11] = system: T47D
[12] = system: NCI/ADR-RES
[13] = system: SK-MEL-28
[14] = system: HOP-92
[15] = system: SK-MEL-5
[16] = system: 786-0
[17] = system: SNB-75
[18] = system: NCI-H522
[19] = system: M14
[20] = system: SN12C
[21] = system: SF-539
[22] = system: NCI-H23
[23] = system: OVCAR-3
[24] = system: NCI-H460
[25] = system: SK-OV-3
[26] = system: HT-29
[27] = system: HCT-15
[28] = system: RXF 393
[29] = system: ACHN
[30] = system: K562
[31] = system: BT-549
[32] = system: KM12
[33] = system: UACC-62
[34] = system: TK-10
[35] = system: CCRF-CEM
[36] = system: HL-60
[37] = system: U-251
[38] = system: Hs-578T
[39] = system: A498
[40] = system: UACC-257
[41] = system: Malme-3M
[42] = system: LOX IMVI
[43] = system: COLO 205
[44] = system: HCT-116
[45] = system: SW-620
[46] = system: MDA-MB-435
[47] = system: SNB-19
[48] = system: IGROV-1
[49] = system: OVCAR-8
[50] = system: PC-3
[51] = system: EKVX
[52] = system: MDA-N
[53] = system: SK-MEL-2
[54] = system: RPMI-8226
[55] = system: MCF7

## CN1CCN(CCCBr)CC1
[1]
  GI50: > 100 µM (inactive)
[2]
  GI50: > 100 µM (inactive)
[3]
  GI50: > 100 µM (inactive)
[4]
  GI50: > 100 µM (inactive)
[5]
  GI50: > 100 µM (inactive)
[6]
  GI50: > 100 µM (inactive)
[7]
  GI50: > 100 µM (inactive)
[8]
  GI50: > 100 µM (inactive)
[9]
  GI50: > 100 µM (inactive)
[10]
  GI50: > 100 µM (inactive)
[11]
  GI50: > 100 µM (inactive)
[12]
  GI50: > 100 µM (inactive)
[13]
  GI50: > 100 µM (inactive)
[14]
  GI50: > 100 µM (inactive)
[15]
  GI50: > 100 µM (inactive)
[16]
  GI50: > 100 µM (inactive)
[17]
  GI50: > 100 µM (inactive)
[18]
  GI50: > 100 µM (inactive)
[19]
  GI50: > 100 µM (inactive)
[20]
  GI50: > 100 µM (inactive)
[21]
  GI50: > 100 µM (inactive)
[22]
  GI50: > 100 µM (inactive)
[23]
  GI50: > 100 µM (inactive)
[24]
  GI50: > 100 µM (inactive)
[25]
  GI50: > 100 µM (inactive)
[26]
  GI50: > 100 µM (inactive)
[27]
  GI50: > 100 µM
[28]
  GI50: > 100 µM (inactive)
[29]
  GI50: > 100 µM (inactive)
[30]
  GI50: > 100 µM (inactive)
[31]
  GI50: > 100 µM (inactive)
[32]
  GI50: > 100 µM (inactive)
[33]
  GI50: > 100 µM (inactive)
[34]
  GI50: > 100 µM (inactive)
[35]
  GI50: > 100 µM (inactive)
[36]
  GI50: > 100 µM (inactive)
[37]
  GI50: > 100 µM (inactive)
[38]
  GI50: > 100 µM (inactive)
[39]
  GI50: > 100 µM (inactive)
[40]
  GI50: > 100 µM (inactive)
[41]
  GI50: > 100 µM (inactive)
[42]
  GI50: > 100 µM (inactive)
[43]
  GI50: > 100 µM (inactive)
[44]
  GI50: > 100 µM (inactive)
[45]
  GI50: > 100 µM (inactive)
[46]
  GI50: > 100 µM (inactive)
[47]
  GI50: > 100 µM (inactive)
[48]
  GI50: > 100 µM (inactive)
[49]
  GI50: > 100 µM (inactive)
[50]
  GI50: > 100 µM (inactive)
[51]
  GI50: > 100 µM (inactive)
[52]
  GI50: > 100 µM (inactive)
[53]
  GI50: > 100 µM (inactive)
[54]
  GI50: > 100 µM (inactive)
[55]
  GI50: > 100 µM (inactive)
